Assay results reported in patent publication US20080248008A1, “Inhibitors of Protein Kinase a Anchoring” (priority 2004, published 2008).

Assays:
[1] = Circular dichroism, α helical content; type: physicochemical
Method: Circular Dichroism. CD spectra were recorded by using a Jasco J-810 spectropolarimeter (Jasco). Measurements were performed at 25° C. by using a quartz cuvette (Starna) with a path length of 0.1 cm. All the measurements were performed with a peptide concentration of 0.10 mg/ml in PBS containing 0-75% trifluoroethanol (TFE). Samples were scanned five times at 20 nm/min with a bandwidth of 1 nm and a response time of 1 s, over the wavelength range 190 to 260 nm. The data were averaged, and the spectrum of a peptide-free control sample was subtracted. The α helical content was calculated after smoothing (means-movement method; convolution width, 13) from ellipticity data, using the neural network program CDNN version 2.1. All measurements were conducted three times.

PKA type I = molecular target: T1, PKA type I (Mus musculus, UniProt Q9DBC7); assay: Solid phase immobilization from Y-1 adrenal cell lysate, PKA type I; type: binding; details: overnight
T1 construct: host or cells: mouse Y-1 adrenocortical cells (lysate)
Method: (§1) Solid phase assay and cell lysate. 5×10^6 Y1 cells or 20×10^6 Jurkat T cells lysed in 150 mM NaCl, 1% NP-40, 0.5% deoxycholate, 0.1% SDS and 50 mM Tris HCl (7.8) were incubated overnight at 4° C. with MEME3 and SM3 peptides synthesized on membranes (Autospot, Intavis, AG). The membranes were washed two times for 10 minutes in lysis buffer and thereafter in high salt lysis buffer (1 M NaCl) before boiling in SDS-PAGE loading buffer.
A solid phase immobilization assay (schematic illustration in FIG. 24, left panel) was used to analyse endogenous PKA binding to MEME3. MEME3 and SM3 peptides synthesized in triplicate on membranes were incubated overnight in lysate from Y-1 adrenal cells. Thereafter bound proteins were eluted, subjected to 10% PAGE and analysed by immunoblotting using specific antibodies against PKA-RIα, PKA-C and PKA-RIIα subunits.

PKA-C subunit = assay: Coimmunoprecipitation of PKA kinase activity from HEK293 cells; type: biochemical, human
Method: Coimmunoprecipitation of PKA kinase activity. Cells at 50-80% confluency were transfected by using FuGENE (Roche Biochemicals). Five micrograms of plasmid DNA (GFP-AKAP-is-V5His, GFP-Scrambled-AKAP-is-V5His, GFP-MEME3-V5H is-and GFP-Scrambled-MEME3-V5His) was transfected into HEK293-cells. Cells were lysed 24 h later in 20 mM Hepes, pH 7.5/150 mM NaCl/1 mM EDTA/1% Triton X-100. MEME3 and the other peptides was immunoprecipitated. PKA kinase assays were performed by the filter paper assay (Corbin and Reimann, 1974, Methods Enzymol., 38, 287-294). The protein kinase inhibitor (PKI) residues 5-24 peptide was used as a specific inhibitor of the kinase (Scott et al., 1986, PNAS, 83, 1613-1616).
The specific activity (pmol/min per IP) of PKA-C subunit from HEK293 cells co-precipitating with chimeric MEME3 fusion protein was measured by a phosphotransferase assay using Kemptide as a substrate (Kemp et al., J. Biol. Chem. 252, p 4888-4894, 1977; Roskoski, R. Methods Enzymol. 99, p 3-6, 1983) in the absence and presence of cAMP (FIG. 12). Specific PKA activity was abrogated when PKI (5-24) peptide (10 μM) was added to the reaction mixture. The MEME3 fusion protein coprecipitated 17-fold more PKA-C activity than the RIIα-selective peptide, AKAP-is (IS) (Alto et al., 2003, supra). […] The accumulated data from three independent experiments are shown.

PKA-RIIα = PKA-RIIα (Homo sapiens, UniProt P13861); assay: Solid phase pull down from T cell lysate, PKA-RIIα; type: binding; design: endogenous in cells; host or cells: Jurkat T cells (lysate); details: overnight
Chain of PKA-RIIα (P13861 whole entry): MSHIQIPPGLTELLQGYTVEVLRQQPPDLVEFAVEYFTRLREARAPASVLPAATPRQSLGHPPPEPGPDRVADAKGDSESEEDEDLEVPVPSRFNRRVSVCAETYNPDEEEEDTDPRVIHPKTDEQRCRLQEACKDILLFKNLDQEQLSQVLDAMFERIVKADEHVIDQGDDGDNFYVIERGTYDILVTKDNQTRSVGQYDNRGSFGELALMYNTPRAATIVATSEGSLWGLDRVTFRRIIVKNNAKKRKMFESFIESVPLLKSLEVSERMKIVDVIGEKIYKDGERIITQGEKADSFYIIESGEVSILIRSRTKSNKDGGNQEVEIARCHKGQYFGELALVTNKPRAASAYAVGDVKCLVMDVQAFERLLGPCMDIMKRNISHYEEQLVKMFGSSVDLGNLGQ
Method: as §1
Solid phase pull down (see schematic illustration in FIG. 24A, left panel) was performed to analyse endogenous PKA binding to MEME3. MEME3 and SM3 peptides synthesized in triplicate on membranes were incubated overnight in T cell lysate, thereafter bound proteins were eluted, subjected to 10% PAGE electrophoresis and analysed by immunoblotting (FIG. 11). The presence of PKA subunits was assessed by immunoblotting using specific antibodies against PKA-RIα and PKA-RIIα subunits.

Molecule | helicity ([1]; 50% TFE) | immobilization of PKA type I (PKA-RIα, PKA-C) (PKA type I) | coprecipitated PKA-C activity relative to AKAP-is (IS) (PKA-C subunit; Kemptide substrate, three experiments) | immobilization of PKA-RIIα (PKA-RIIα) | helicity ([1]; absence of TFE) | coprecipitated kinase activity (PKA-C subunit)
LEQYANQLADQIIKEATERRRRRRRRRrr [MEME3-Arg11] | 39% |  |  |  |  | 
CC[C@H](C)[C@H](NC(=O)[C@H](CCC(N)=O)NC(=O)[C@H](CC(=O)O)NC(=O)[C@H](C)NC(=O)[C@H](CC(C)C)NC(=O)[C@H](CCC(N)=O)NC(=O)[C@H](CC(N)=O)NC(=O)[C@H](C)NC(=O)[C@H](Cc1ccc(O)cc1)NC(=O)[C@H](CCC(N)=O)NC(=O)[C@H](CCC(=O)O)NC(=O)[C@@H](N)CC(C)C)C(=O)N[C@H](C(=O)N[C@@H](CCCCN)C(=O)N[C@@H](CCC(=O)O)C(=O)N[C@@H](C)C(=O)N[C@H](C(=O)N[C@@H](CCC(=O)O)C(=O)N[C@@H](CCCCNC(=O)c1ccc2c(c1)C(=O)OC21c2ccc(O)cc2Oc2cc(O)ccc21)C(N)=O)[C@@H](C)O)[C@@H](C)CC [MEME3] | 49% | Only PKA type I was immobilized | 17 fold | not PKA-RIIα | 12% | 
IEKELAQQYQNADAITLE [SM3, scrambled MEME3 negative control peptide, reference compound] | 29% | Neither PKA-RIα, PKA-C nor PKA-RIIα were immobilized |  | Neither PKA-RIα nor PKA-RIIα bound | 7% | No kinase activity was detected
